In BigSolDB 2.1:

O=C(O[C@@H]1Cc2c(O)cc(O)cc2O[C@@H]1c1cc(O)c(O)c(O)c1)c1cc(O)c(O)c(O)c1
solubility (mole fraction) (in 2-butoxyethanol, 278.15 K): 0.00142
solubility (mole fraction) (in 2-butoxyethanol, 288.15 K): 0.00195
solubility (mole fraction) (in 2-butoxyethanol, 298.15 K): 0.00268
solubility (mole fraction) (in 2-butoxyethanol, 308.15 K): 0.00384
solubility (mole fraction) (in 2-butoxyethanol, 318.15 K): 0.00559
solubility (mole fraction) (in 2-ethoxyethanol, 278.15 K): 0.00904
solubility (mole fraction) (in 2-ethoxyethanol, 288.15 K): 0.0151
solubility (mole fraction) (in 2-ethoxyethanol, 298.15 K): 0.0272
solubility (mole fraction) (in 2-ethoxyethanol, 308.15 K): 0.0436
solubility (mole fraction) (in 2-ethoxyethanol, 318.15 K): 0.0701
solubility (mole fraction) (in 2-methoxyethanol, 278.15 K): 0.0158
solubility (mole fraction) (in 2-methoxyethanol, 288.15 K): 0.0254
solubility (mole fraction) (in 2-methoxyethanol, 298.15 K): 0.0365
solubility (mole fraction) (in 2-methoxyethanol, 308.15 K): 0.0558
solubility (mole fraction) (in 2-methoxyethanol, 318.15 K): 0.0815
solubility (mole fraction) (in 2-propoxyethanol, 278.15 K): 0.00275
solubility (mole fraction) (in 2-propoxyethanol, 288.15 K): 0.00352
solubility (mole fraction) (in 2-propoxyethanol, 298.15 K): 0.00456
solubility (mole fraction) (in 2-propoxyethanol, 308.15 K): 0.0059
solubility (mole fraction) (in 2-propoxyethanol, 318.15 K): 0.00809
solubility (mole fraction) (in ethanol, 278.15 K): 5.41e-05
solubility (mole fraction) (in ethanol, 288.15 K): 9.24e-05
solubility (mole fraction) (in ethanol, 298.15 K): 0.000175
solubility (mole fraction) (in ethanol, 308.15 K): 0.000387
solubility (mole fraction) (in ethanol, 318.15 K): 0.000714
solubility (mole fraction) (in isopropanol, 278.15 K): 6e-06
solubility (mole fraction) (in isopropanol, 288.15 K): 1.67e-05
solubility (mole fraction) (in isopropanol, 298.15 K): 5.53e-05
solubility (mole fraction) (in isopropanol, 308.15 K): 0.000194
solubility (mole fraction) (in isopropanol, 318.15 K): 0.000481
solubility (mole fraction) (in methanol, 288.15 K): 1.65e-05
solubility (mole fraction) (in methanol, 298.15 K): 5.8e-05
solubility (mole fraction) (in methanol, 308.15 K): 0.000184
solubility (mole fraction) (in methanol, 318.15 K): 0.000612
solubility (mole fraction) (in n-butanol, 288.15 K): 1.95e-05
solubility (mole fraction) (in n-butanol, 298.15 K): 5.41e-05
solubility (mole fraction) (in n-butanol, 308.15 K): 0.000136
solubility (mole fraction) (in n-butanol, 318.15 K): 0.000349
solubility (mole fraction) (in n-hexanol, 278.15 K): 6.8e-07
solubility (mole fraction) (in n-hexanol, 288.15 K): 3.87e-06
solubility (mole fraction) (in n-hexanol, 298.15 K): 1.79e-05
solubility (mole fraction) (in n-hexanol, 308.15 K): 5.35e-05
solubility (mole fraction) (in n-hexanol, 318.15 K): 0.000138
solubility (mole fraction) (in n-pentanol, 278.15 K): 9.9e-07
solubility (mole fraction) (in n-pentanol, 288.15 K): 5.7e-06
solubility (mole fraction) (in n-pentanol, 298.15 K): 3.01e-05
solubility (mole fraction) (in n-pentanol, 308.15 K): 8.6e-05
solubility (mole fraction) (in n-pentanol, 318.15 K): 0.000187
solubility (mole fraction) (in n-propanol, 278.15 K): 1.22e-05
solubility (mole fraction) (in n-propanol, 288.15 K): 3.79e-05
solubility (mole fraction) (in n-propanol, 298.15 K): 9.06e-05
solubility (mole fraction) (in n-propanol, 308.15 K): 0.000195
solubility (mole fraction) (in n-propanol, 318.15 K): 0.000656
solubility (mole fraction) (in sec-butanol, 278.15 K): 5.04e-06
solubility (mole fraction) (in sec-butanol, 288.15 K): 2.12e-05
solubility (mole fraction) (in sec-butanol, 298.15 K): 4.97e-05
solubility (mole fraction) (in sec-butanol, 308.15 K): 0.00014
solubility (mole fraction) (in sec-butanol, 318.15 K): 0.000636
